# Assay results reported in article PMC6225232, “Design, Synthesis and Biological Evaluation of Ligustrazine-Flavonoid Derivatives as Potential Anti-Tumor Agents” (Molecules : A Journal of Synthetic Chemistry and Natural …, 2018).
# Legend:
# Type in all cases: cell-based, human
# [1] = system: HepG-2; experiment: MTT cytotoxicity assay, HepG-2
# Experimental: (§1) Five kinds of tumor cell lines and one normal endothelial cell were routinely cultured respectively in RPMI 1640 medium supplemented with 10% (V/V) FBS and 1% (V/V) penicillin-streptomycin, incubated at 37 °C in a 5% CO2 containing incubator. The five tumor cell lines were plated onto 96-well sterile plates in 100 μL/well of medium at a density of 3.5 × 10^3 cells per well and incubated at 37 °C with 5% CO2 for 24 h. Then luteolin, baicalein, apigenin, chrysin, quercetin, fisetin, genistein, daidzein, naringenin, DDP and compounds 10–25 were added at various concentrations (5, 10, 20, 40, 50 μΜ). Each plate contained control group, blank group, drug group and positive group (DDP). After 72 h, 20 μL MTT in phosphate buffered saline (PBS, 5 mg/mL) was added to each well and the plates were incubated at 37 °C for 4 h, then removing the liquid and adding dimethyl sulfoxide (DMSO, 100 μL) to dissolve the MTT formazan. The optical density (OD) for each well was measured on a BIORAD 550 spectrophotometer plate reader (Bio-Gene Technology Ltd., Guangzhou, China) at a wavelength of 490 nm. All tests were carried out three times in parallel.
# [2] = system: Bel-7402; experiment: MTT cytotoxicity assay, Bel-7402
# Experimental: as §1
# [3] = system: HT-29; experiment: MTT cytotoxicity assay, HT-29
# Experimental: as §1
# [4] = system: MCF-7; experiment: MTT cytotoxicity assay, MCF-7
# Experimental: as §1
# [5] = system: HeLa; experiment: MTT cytotoxicity assay, HeLa; settings: 72 h
# Experimental: as §1
# [6] = system: HUVEC-12; experiment: MTT cytotoxicity assay using HUVEC-12 cell; settings: for Proliferation Rate (%) 2.5 μM / Proliferation Rate (%) 5 μM / Proliferation Rate (%) 10 μM / Proliferation Rate (%) 20 μM / Proliferation Rate (%) 40 μM: HUVEC-12, 24 h, negative = inhibition; for IC50: MTT, 24 h
# Experimental: Five kinds of tumor cell lines and one normal endothelial cell were routinely cultured respectively in RPMI 1640 medium supplemented with 10% (V/V) FBS and 1% (V/V) penicillin-streptomycin, incubated at 37 °C in a 5% CO2 containing incubator.
# The HUVEC-12 cell were seeded in 96-well plates (6.0 × 10^3 cells/ well), and incubated at 37 °C in a 5% CO2 containing incubator. After 24 h, the medium was replaced with fresh medium containing the compounds to be tested. Compounds 14, 19 and DDP were added in final concentrations ranging from 2.5 to 40 μM. Each plate contained control group, blank group and drug group. After 24 h, 20 μL MTT was added to each well and the plates were incubated at 37 °C for 4 h, then removing the liquid and adding dimethyl sulfoxide (DMSO) (100 μL) to dissolve the MTT formazan. The optical density (OD) for each well was measured on a BIORAD 550 spectrophotometer plate reader at a wavelength of 490 nm. All tests were carried out three times in parallel. The proliferation inhibition rates of tumor cells were calculated by {1 − [OD490 (Drug group) − OD490 (Blank group)]/[OD490 (Control group) − OD490 (Blank group)]} × 100%.
# [7] = system: Bel-7402 cells; experiment: Morphological analysis using Giemsa and DAPI staining; settings: 72 h
# Experimental: The Bel-7402 cells were plated onto 12-well sterile plates at a density of 2.4 × 10^4 cells per well and incubated at 37 °C in a 5% CO2 containing incubator. Then the cells were incubated in the presence of compound 14 at various concentrations (0, 10, 20, 40 μΜ) for 72 h. Then cells were washed with PBS twice, fixed with cold ethanol and 4% paraformaldehyde (pH = 7.4) for 10 min respectively and washed with PBS again. Then fixed cells were stained with 6% Giemsa solution or DAPI at the concentration of 1 mg/mL for 5 min in the dark. Finally, the cells washed with water and dried. The cell morphological changes were observed by fluorescent microscopy and images were captured by digital camera.
# [8] = system: Bel-7402 cells; experiment: Apoptosis analysis by flow cytometry, Annexin V-FITC/PI staining; settings: 72 h, control 5.4%
# Experimental: The Bel-7402 cells were plated onto 6-well sterile plates (4.8 × 10^4 cells/well) and placed at 37 °C with 5% CO2 for 24 h. Then compound 14 at various concentrations (0, 5, 10, 20 μΜ) was added. After 72 h, all cells were collected respectively with the right amount of trypsin (without EDTA) digestion. Then the cells were washed with cold PBS twice and centrifuged at 1000 rpm for 5 min. The harvested cells were resuspended in 200 μL binding buffer, which contained 10 μL Annexin V-FITC and PI. After avoided light reaction for 15 min, the cells were analyzed with a flow cytometer.
Structure (SMILES),"IC50 ([1]; Homo sapiens, HepG2, 72 h) [µM]","IC50 ([2]; Homo sapiens, Bel-7402, 72 h) [µM]","IC50 ([3]; Homo sapiens, HT-29, 72 h) [µM]","IC50 ([4]; Homo sapiens, MCF7, 72 h) [µM]",IC50 ([5]; Homo sapiens) [µM],also measured
O=c1cc(-c2ccc(O)cc2)oc2cc(O)cc(O)c12 [Apigenin],16.1 ± 1.52,28.2 ± 0.38,23.4 ± 1.89,29.7 ± 1.43,30.6 ± 0.71,
O=c1cc(-c2ccccc2)oc2cc(O)c(O)c(O)c12 [Baicalein],20.4 ± 2.07,21.6 ± 3.68,19.2 ± 2.72,37.9 ± 1.52,22.8 ± 3.54,
O=c1cc(-c2ccccc2)oc2cc(O)cc(O)c12 [Chrysin],15.6 ± 0.3,35 ± 1.46,30.3 ± 1.96,32.1 ± 2.78,> 40,
"Cc1nc(C)c(COc2cc(O)c3c(=O)cc(-c4ccccc4)oc3c2)nc1C [Compound 10, 5-Hydroxy-2-phenyl-7-((3,5,6-trimethylpyrazin-2-yl)methoxy)-4H-chromen-4-one]",> 40,> 40,> 40,> 40,26.7 ± 0.34,
"Cc1nc(C)c(COc2cc3oc(-c4ccccc4)cc(=O)c3c(OCc3nc(C)c(C)nc3C)c2OCc2nc(C)c(C)nc2C)nc1C [Compound 13, 2-Phenyl-5,6,7-tris((3,5,6-trimethylpyrazin-2-yl)methoxy)-4H-chromen-4-one]",13.4 ± 2.5,26.13 ± 0.11,22.4 ± 0.35,> 40,17.3 ± 1.07,
"Cc1nc(C)c(COc2ccc(/C=C/C(=O)c3c(O)cc(OCc4nc(C)c(C)nc4C)cc3OCc3nc(C)c(C)nc3C)cc2)nc1C [Compound 14, (E)-1-(2-Hydroxy-4,6-bis((3,5,6-trimethylpyrazin-2-yl)methoxy)phenyl)-3-(4-((3,5,6-trimethylpyrazin-2-yl)methoxy)phenyl)prop-2-en-1-one]",17.3 ± 0.47,10.5 ± 1.12,31.9 ± 1.96,29.8 ± 2.18,25.1 ± 1.8,"IC50 ([2]; 72 h): 10.7 ± 1.12 µM; Proliferation Rate (%) 2.5 μM [6]: 1.62 ± 0.75%; Proliferation Rate (%) 5 μM [6]: 1.99 ± 0.23%; Proliferation Rate (%) 10 μM [6]: 14.84 ± 1.41%; Proliferation Rate (%) 20 μM [6]: 16.71 ± 0.29%; Proliferation Rate (%) 40 μM [6]: −2.32 ± 1.37%; IC50 ([6]; Homo sapiens): > 40 µM; cell morphology, Giemsa staining ([7]; Bel-7402, 40 μM): mainly cell fragments rather than complete cells; cell morphology, DAPI staining ([7]; Bel-7402, 10, 20, 40 μM): morphological features of apoptosis; apoptosis ratio (early and late) ([8]; Bel-7402, 10 μM): 45.5%; apoptosis ratio (early and late) ([8]; Bel-7402, 20 μM): 54.6%"
"Cc1nc(C)c(COc2ccc(/C=C/C(=O)c3c(OCc4nc(C)c(C)nc4C)cc(OCc4nc(C)c(C)nc4C)cc3OCc3nc(C)c(C)nc3C)cc2)nc1C [Compound 16, (E)-3-(4-((3,5,6-Trimethylpyrazin-2-yl)methoxy)phenyl)-1-(2,4,6-tris((3,5,6-trimethylpyrazin-2-yl)-methoxy)phenyl)prop-2-en-1-one]",20.6 ± 1.39,> 40,34.4 ± 2.32,16.5 ± 0.45,30.5 ± 2.62,
"Cc1nc(C)c(COc2ccc(-c3coc4cc(OCc5nc(C)c(C)nc5C)cc(O)c4c3=O)cc2)nc1C [Compound 17, 5-Hydroxy-7-((3,5,6-trimethylpyrazin-2-yl)methoxy)-3-(4-((3,5,6-trimethylpyrazin-2-yl)methoxy)-phenyl)-4H-chromen-4-one]",> 40,> 40,10.7 ± 1.35,> 40,> 40,
"Cc1nc(C)c(COc2ccc(-c3coc4cc(O)ccc4c3=O)cc2)nc1C [Compound 19, 7-Hydroxy-3-(4-((3,5,6-trimethylpyrazin-2-yl)methoxy)phenyl)-4H-chromen-4-one]",14.5 ± 0.48,28.9 ± 0.49,11.7 ± 1.29,10.4 ± 1.23,14.3 ± 1.17,Proliferation Rate (%) 2.5 μM [6]: −8.75 ± 0.38%; Proliferation Rate (%) 5 μM [6]: −19.35 ± 0.35%; Proliferation Rate (%) 10 μM [6]: −19.49 ± 2.17%; Proliferation Rate (%) 20 μM [6]: −24.22 ± 3.19%; Proliferation Rate (%) 40 μM [6]: −25.07 ± 1.02%; IC50 ([6]; Homo sapiens): > 40 µM
"Cc1nc(C)c(COc2ccc(-c3coc4cc(OCc5nc(C)c(C)nc5C)ccc4c3=O)cc2)nc1C [Compound 20, 7-((3,5,6-Trimethylpyrazin-2-yl)methoxy)-3-(4-((3,5,6-trimethylpyrazin-2-yl)methoxy)phenyl)-4H-chromen-4-one]",> 40,25.2 ± 1.72,10.9 ± 2.3,> 40,16.5 ± 1.79,
"N.N.[Cl][Pt][Cl] [DDP, reference compound]",,,,,,IC50 ([1]; 72 h): 4.14 ± 0.16 µM; IC50 ([2]; 72 h): 6.73 ± 0.37 µM; IC50 ([3]; 72 h): 5.83 ± 0.59 µM; IC50 ([4]; 72 h): 6.75 ± 0.57 µM; IC50 [5]: 4.76 ± 0.41 µM; Proliferation Rate (%) 2.5 μM [6]: −23.93 ± 0.75%; Proliferation Rate (%) 5 μM [6]: −31.38 ± 1.46%; Proliferation Rate (%) 10 μM [6]: −58.24 ± 0.82%; Proliferation Rate (%) 20 μM [6]: −66.58 ± 1.75%; Proliferation Rate (%) 40 μM [6]: −82.69 ± 2.19%; IC50 [6]: 9.11 ± 0.54 µM
O=c1c(-c2ccc(O)cc2)coc2cc(O)ccc12 [Daidzein],21.8 ± 1.53,> 40,> 40,36.8 ± 1.48,> 40,
O=c1c(O)c(-c2ccc(O)c(O)c2)oc2cc(O)ccc12 [Fisetin],17.4 ± 1.04,25.5 ± 1.54,23.9 ± 0.81,38.1 ± 1.83,20.9 ± 1.65,
O=c1c(-c2ccc(O)cc2)coc2cc(O)cc(O)c12 [Genistein],19.8 ± 1.31,34.7 ± 0.63,31.13 ± 0.26,35.6 ± 1.38,34.6 ± 2.52,
O=c1cc(-c2ccc(O)c(O)c2)oc2cc(O)cc(O)c12 [Luteolin],11.8 ± 0.44,14.5 ± 0.68,19.2 ± 1.17,17 ± 0.31,21.3 ± 1.12,
O=c1c(O)c(-c2ccc(O)c(O)c2)oc2cc(O)cc(O)c12 [Quercetin],13.6 ± 0.73,30.4 ± 2.51,27 ± 0.47,> 40,20.8 ± 4.04,
